According to patent US20060019241A1, “Na+ and CI-coupled transport system for endogenous opioid peptides” (priority 2004, published 2006):

tested on: enkephalin/endorphin transport system in SK—N—SH cells; assay: [^3H]deltorphin II uptake in SK—N—SH cells, effect of peptides and amino acids; format: cell-based, human; conditions: [^3H]deltorphin II 25 nM, NaCl, 30 minutes, compound 1 mM
Protocol: Uptake measurements in control ARPE-19 cells and Tat-ARPE-19 cells. Control ARPE-19 cells and Tat-ARPE-19 cells were maintained in 75-cm^2 culture flasks in Dulbecco's modified Eagle's medium/F12 medium (1:1, volume/volume (v/v)) in the presence of fetal bovine serum (10%) and G418 (100 μg/ml). For uptake measurements, cells were released by trypsin treatment and seeded in 24-well culture plates at an initial density of 0.1×10^6 cells/well. The culture medium was replaced with fresh medium on the second day following the initial seeding and uptake measurements were made on the third day. […] After incubation at 37° C. for a desired time, uptake was terminated by the removal of the medium and washing of the cells with ice-cold uptake buffer. The cells were then dissolved in 1% SDS in 0.2 M NaOH and used for measurement of radioactivity. The uptake buffer in most experiments was 25 mM Hepes/Tris (pH 7.5), containing 140 mM NaCl, 5.4 mM KCl, 1.8 mM CaCl2, 0.8 mM MgSO4 and 5 mM glucose.
Since enkephalins and endorphins are relevant to pain perception and to further provide evidence in support of a role for the transport system in opioidergic neurotransmission, the human neuronal cell line SK—N—SH was tested for expression of the transport system. […] Unless otherwise specified, procedures are as detailed in Example 1.
The concentration of enkephalins and dynorphins was 1 mM.
Finally, the relative affinity of various enkephalins and dynorphins for the transport system in SK—N—SH cells was determined.
To the further characterize the opioid transport of the present invention, various specific peptides that act as positive modulators of the enkephalin/endorphin transport system in the human neuronal cell line SK—N—SH were identified. Unless otherwise specified, procedures are as detailed in Example 1. […] Uptake was measured in the presence of NaCl for 30 minutes. The concentration of the dipeptides was 1 mM.
Uptake was measured in the presence of NaCl for 30 minutes. The concentration of the tripeptides was 1 mM.
Unless otherwise specified, procedures are as described in more detail in Example 1.
The dose-response relationship for the inhibition of the enkephalin/endorphin transport system by L-Lysine and its methyl and ethyl esters is shown in FIG. 15.

Row | Compound | Deltorphin II uptake [pmol/30 min/mg protein]
1 | C[N+](C)(C)C[C@H](O)CC(=O)[O-] [L-Carnitine] | 2.34 ± 0.12
2 | NC(=O)NCCC[C@H](N)C(=O)O [L-Citrulline] | 2.18 ± 0.06
3 | NCCCC[C@H](N)C(N)=O [L-Lys-amide] | 2.92 ± 0.09
4 | COC(=O)[C@@H](N)CCCCN [L-Lys-methyl ester, L-lysylmethyl ester] | 0.28 ± 0.01
5 | CC(=N)NCCCC[C@H](N)C(=O)O [L-NIL] | 2.40 ± 0.15
6 | NCCC[C@H](N)C(=O)O [L-Ornitine] | 1.87 ± 0.08
7 | CCOC(=O)[C@@H](N)CCCCN [Lys-ethyl ester, L-lysylethyl ester] | 0.55 ± 0.05
8 | C[N+](C)(C)CCCC[C@H](N)C(=O)O [Trimethyl-L-Lys] | 2.39 ± 0.11
9 | COC(=O)[C@H](CCCCN)NC(C)=O [α-N-acetyl-L-Lys-methyl ester] | 2.37 ± 0.20
10 | CC(=O)N[C@@H](CCCCN)C(=O)O [α-N-acetyl-L-Lys] | 2.82 ± 0.08
11 | NCC(=O)CCC(=O)O [δ-amino-levulinic acid] | 2.68 ± 0.18
12 | CC(=O)NCCCC[C@H](N)C(=O)O [ε-N-acetyl-L-Lys] | 2.38 ± 0.13

same assay, conditions: [^3H]deltorphin II 25 nM, NaCl, 30 minutes, test substance 1 mM

Row | Compound | effect on [^3H]deltorphin II uptake (in words)
13 | C[C@@H](N)C(=O)O [D-alanine] | significant inhibition
14 | CC(C)C[C@H](N)C(=O)O [L-leucine] | significant inhibition
15 | CC(C)[C@H](N)C(=O)O [L-valine] | significant inhibition
16 | Glu-Gly-Phe | ability to stimulate the uptake
17 | Gly-Gly-Phe | ability to stimulate the uptake
18 | Try-Gly-Gly | ability to stimulate the uptake

same assay, conditions: read-out: Ki for inhibition of deltorphin II uptake, dose-response studies

Row | Compound | Ki [µM]
19 | COC(=O)[C@@H](N)CCCCN [L-Lys-methyl ester, L-lysylmethyl ester] | 169 ± 9
20 | CCOC(=O)[C@@H](N)CCCCN [Lys-ethyl ester, L-lysylethyl ester] | 154 ± 34
